Blank lines part the entries; values can stand above or below the molecule they belong to.
How the values were obtained:
Cannabinoid receptor 1 [1] = target: T1, Cannabinoid receptor 1 (Homo sapiens, UniProt P21554); assay: Positive allosteric modulation of human CB1 receptor expressed in CHOK1 cells assessed as increase in CP55940-induced beta-arrestin recruitment at 1 uM preincubated for 30 mins followed by CP55940 addition and measured after 90 to 180 mins by PathHunter assay relative to CP55940; assay type: cell-based
T1 sequence (P21554 whole entry): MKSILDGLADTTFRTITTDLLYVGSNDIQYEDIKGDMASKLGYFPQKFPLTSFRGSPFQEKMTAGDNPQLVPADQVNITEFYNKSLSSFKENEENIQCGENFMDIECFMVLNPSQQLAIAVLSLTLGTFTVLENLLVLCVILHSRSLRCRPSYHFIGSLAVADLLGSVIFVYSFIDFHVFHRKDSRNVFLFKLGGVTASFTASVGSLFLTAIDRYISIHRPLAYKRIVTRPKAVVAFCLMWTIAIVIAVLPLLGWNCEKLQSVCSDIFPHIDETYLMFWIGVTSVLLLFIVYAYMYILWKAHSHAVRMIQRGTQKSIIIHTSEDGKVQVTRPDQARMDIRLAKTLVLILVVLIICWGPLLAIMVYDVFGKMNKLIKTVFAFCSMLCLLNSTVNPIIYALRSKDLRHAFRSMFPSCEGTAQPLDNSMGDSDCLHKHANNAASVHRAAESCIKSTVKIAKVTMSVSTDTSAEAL

Cannabinoid receptor 1 [2] = target: T1, Cannabinoid receptor 1; assay: Agonist activity at human CB1 receptor expressed in CHOK1 cells assessed as induction of beta-arrestin recruitment measured after 30 mins by PathHunter assay; assay type: cell-based
[3] = Half life in human liver microsomes at 3 uM in presence of NADPH by LC-MS/MS analysis; assay type: ADME, Microsome
Cannabinoid receptor 1 [4] = target: T1, Cannabinoid receptor 1; assay: Positive allosteric modulation of human CB1 receptor expressed in CHOK1 cells assessed as increase in CP55940-induced beta-arrestin recruitment preincubated for 30 mins followed by CP55940 addition and measured after 90 to 180 mins by PathHunter assay; assay type: cell-based
[5] = Half life in rat liver microsomes at 3 uM in presence of NADPH by LC-MS/MS analysis; assay type: ADME, Microsome
Cannabinoid receptor 1 [6] = target: T1, Cannabinoid receptor 1; assay: Positive allosteric modulation of human CB1 receptor expressed in CHOK1 cells assessed as increase in CP55940-induced beta-arrestin recruitment at 1000 nM preincubated for 30 mins followed by CP55940 addition and measured after 90 to 180 mins by PathHunter assay relative to CP55940; assay type: cell-based
Cannabinoid receptor 1 [7] = target: T1, Cannabinoid receptor 1; assay: Positive allosteric modulation of human CB1 receptor expressed in CHOK1 cells assessed as increase in CP55940-induced beta-arrestin recruitment preincubated for 30 mins followed by CP55940 addition and measured after 90 to 180 mins by PathHunter assay relative to CP55940; assay type: cell-based
Cannabinoid receptor 1 [8] = target: T1, Cannabinoid receptor 1; assay: Positive allosteric modulation of human CB1 receptor expressed in CHOK1 cells assessed as increase in CP55940-induced beta-arrestin recruitment at 500 nM preincubated for 30 mins followed by CP55940 addition and measured after 90 to 180 mins by PathHunter assay relative to CP55940; assay type: cell-based

SMILES: N#CCC(c1ccccc1)c1c(-c2ccccc2)[nH]c2cc(Cl)ccc12 (racemic)
EC50 (Cannabinoid receptor 1 [2]): 2350 nM
t1/2 [3]: 43.2 min
EC50 (Cannabinoid receptor 1 [4]): 1110 nM
t1/2 [5]: 22.5 min

SMILES: CC(C)CN(C(=O)C(F)(F)F)c1c(-c2ccccc2)[nH]c2ccccc12
Activity (Cannabinoid receptor 1 [1]): 50%

SMILES: Cc1ccc2c(C(C[N+](=O)[O-])c3cccs3)c(C3CC3)[nH]c2c1 (racemic)
Activity (Cannabinoid receptor 1 [6]): > 50%

SMILES: O=[N+]([O-])CC(c1cccs1)c1c(-c2ccccc2)[nH]c2cc(C(F)(F)F)ccc12 (racemic)
EC50 (Cannabinoid receptor 1 [2]): 974 nM
t1/2 [3]: 30.7 min
EC50 (Cannabinoid receptor 1 [4]): 284 nM
t1/2 [5]: 15.6 min

SMILES: Cc1ccc2c(C(C[N+](=O)[O-])c3cccs3)c(-c3ccc(F)cc3)[nH]c2c1 (racemic)
Activity (Cannabinoid receptor 1 [1]): < 50%

SMILES: FC(F)(F)CC(c1cccs1)c1c(C2CCCC2)[nH]c2cc(C(F)(F)F)ccc12 (racemic)
EC50 (Cannabinoid receptor 1 [2]): 755 nM
Emax (Cannabinoid receptor 1 [7]): 162%
t1/2 [3]: 47.1 min
EC50 (Cannabinoid receptor 1 [4]): 301 nM
Activity (Cannabinoid receptor 1 [8]): > 50%
t1/2 [5]: 44.4 min

SMILES: N#Cc1cccc(-c2[nH]c3cc(Cl)ccc3c2C(C[N+](=O)[O-])c2cccs2)c1 (racemic)
Activity (Cannabinoid receptor 1 [1]): < 50%

SMILES: O=C(N(CC1CC1)c1c(-c2ccccc2)[nH]c2ccccc12)C(F)(F)F
Activity (Cannabinoid receptor 1 [1]): 50%

SMILES: O=[N+]([O-])CC(c1cccs1)c1c(-c2ccc(Cl)cc2)[nH]c2cc(Cl)ccc12 (racemic)
Activity (Cannabinoid receptor 1 [1]): < 50%

SMILES: CN(C)c1ccc(-c2[nH]c3cc(Cl)ccc3c2C(C[N+](=O)[O-])c2cccs2)cc1 (racemic)
Activity (Cannabinoid receptor 1 [1]): < 50%

SMILES: Cc1ccc2c(C(C[N+](=O)[O-])c3cccs3)c(C3CCCC3)[nH]c2c1 (racemic)
Activity (Cannabinoid receptor 1 [6]): > 50%

SMILES: COc1ccc(-c2[nH]c3cc(Cl)ccc3c2C(C[N+](=O)[O-])c2cccs2)cc1 (racemic)
Activity (Cannabinoid receptor 1 [1]): < 50%

SMILES: O=[N+]([O-])CC(c1cccs1)c1c(-c2ccc(F)cc2)[nH]c2cc(Cl)ccc12 (racemic)
Activity (Cannabinoid receptor 1 [1]): < 50%

SMILES: COC(=O)c1ccc(-c2[nH]c3cc(Cl)ccc3c2C(C[N+](=O)[O-])c2cccs2)cc1 (racemic)
Activity (Cannabinoid receptor 1 [1]): < 50%

SMILES: N#Cc1ccc2[nH]c(-c3ccccc3)c(C(C[N+](=O)[O-])c3cccs3)c2c1 (racemic)
Activity (Cannabinoid receptor 1 [1]): < 50%
t1/2 [3]: 49.4 min
t1/2 [5]: 8.2 min

SMILES: N#Cc1ccc2c(C(C[N+](=O)[O-])c3cccs3)c(-c3ccccc3)[nH]c2c1 (racemic)
Activity (Cannabinoid receptor 1 [6]): > 50%

SMILES: FC(F)(F)CC(c1cccs1)c1c(-c2ccccc2)[nH]c2cc(C(F)(F)F)ccc12 (racemic)
EC50 (Cannabinoid receptor 1 [2]): 801 nM
Emax (Cannabinoid receptor 1 [7]): 203%
t1/2 [3]: 49.7 min
EC50 (Cannabinoid receptor 1 [4]): 322 nM
Activity (Cannabinoid receptor 1 [8]): > 50%
t1/2 [5]: 36.7 min

SMILES: Cc1ccc2c(C(C[N+](=O)[O-])c3cccs3)c(C3CCCCC3)[nH]c2c1 (racemic)
Activity (Cannabinoid receptor 1 [1]): < 50%

SMILES: CS(=O)(=O)c1ccc(-c2[nH]c3cc(Cl)ccc3c2C(C[N+](=O)[O-])c2cccs2)cc1 (racemic)
Activity (Cannabinoid receptor 1 [1]): < 50%

SMILES: N#Cc1ccc(-c2[nH]c3cc(Cl)ccc3c2C(C[N+](=O)[O-])c2cccs2)cc1 (racemic)
Activity (Cannabinoid receptor 1 [1]): < 50%

SMILES: O=[N+]([O-])CC(c1cccs1)c1c(-c2ccccc2)[nH]c2cc(Cl)ccc12 (racemic)
EC50 (Cannabinoid receptor 1 [2]): 1530 nM
t1/2 [3]: 32.7 min
EC50 (Cannabinoid receptor 1 [4]): 462 nM
Activity (Cannabinoid receptor 1 [8]): > 50%
t1/2 [5]: 13.8 min

SMILES: COc1cccc(-c2[nH]c3cc(Cl)ccc3c2C(C[N+](=O)[O-])c2cccs2)c1 (racemic)
Activity (Cannabinoid receptor 1 [1]): < 50%

SMILES: N#Cc1ccc2[nH]c(C3CCCCC3)c(C(C[N+](=O)[O-])c3cccs3)c2c1 (racemic)
Activity (Cannabinoid receptor 1 [1]): < 50%
t1/2 [3]: 21.4 min
t1/2 [5]: 3.8 min

SMILES: N#CC(C#N)C(c1ccccc1)c1c(-c2ccccc2)[nH]c2cc(Cl)ccc12 (racemic)
Activity (Cannabinoid receptor 1 [1]): < 50%
t1/2 [3]: 29.6 min
t1/2 [5]: 13.5 min

Further lines, results first:

Activity (Cannabinoid receptor 1 [1]): 30 to 50%
SMILES: O=C(C(c1ccccc1)c1c(-c2ccccc2)[nH]c2ccccc12)C(F)(F)F (racemic)

Activity (Cannabinoid receptor 1 [6]): > 50%
SMILES: Cc1ccc2c(C(CC3CC3)CC(F)(F)F)c(-c3ccccc3)[nH]c2c1 (racemic)

Activity (Cannabinoid receptor 1 [1]): < 50%
SMILES: Cc1ccc2[nH]c(-c3ccccc3)c(C(CC(F)(F)F)c3cccs3)c2c1 (racemic)

t1/2 [3]: 31.2 min
Activity (Cannabinoid receptor 1 [6]): > 50%
t1/2 [5]: 4.9 min
SMILES: Cc1ccc2c(C(c3cccs3)C(C#N)C#N)c(-c3ccccc3)[nH]c2c1 (racemic)

Activity (Cannabinoid receptor 1 [1]): < 50%
SMILES: O=C(O)c1ccc2c(C(CC(F)(F)F)c3cccs3)c(-c3ccccc3)[nH]c2c1 (racemic)

Activity (Cannabinoid receptor 1 [6]): > 50%
SMILES: Cc1ccc2c(C(c3ccccc3)C(C#N)C#N)c(-c3ccccc3)[nH]c2c1 (racemic)

Activity (Cannabinoid receptor 1 [1]): < 50%
SMILES: CC(=O)c1ccc(-c2[nH]c3cc(Cl)ccc3c2C(C[N+](=O)[O-])c2cccs2)cc1 (racemic)

Activity (Cannabinoid receptor 1 [6]): > 50%
SMILES: Cc1ccc2c(C(CC(F)(F)F)c3ccco3)c(-c3ccccc3)[nH]c2c1 (racemic)

Activity (Cannabinoid receptor 1 [1]): < 50%
SMILES: N#CCC(c1ccccc1)c1c(-c2ccccc2)[nH]c2ccccc12 (racemic)

t1/2 [3]: 62.7 min
SMILES: O=C(O)CC(c1ccccc1)c1c(-c2ccccc2)[nH]c2ccccc12 (racemic) [listing 1 of 2 here]

Activity (Cannabinoid receptor 1 [1]): 30 to 50%
Activity (Cannabinoid receptor 1 [6]): > 50%
SMILES: FC(F)(F)CC(c1ccccc1)c1c(-c2ccccc2)[nH]c2ccccc12 (racemic)

Activity (Cannabinoid receptor 1 [1]): < 50%
SMILES: O=[N+]([O-])CC(c1cccs1)c1c(-c2ccccc2)[nH]c2ccc([N+](=O)[O-])cc12 (racemic)

Activity (Cannabinoid receptor 1 [1]): < 50%
SMILES: Cc1ccc2[nH]c(-c3ccccc3)c(C(CC(F)(F)F)c3ccccc3)c2c1 (racemic)

Activity (Cannabinoid receptor 1 [6]): > 50%
SMILES: Cc1ccc2c(C(CC#N)c3ccccc3)c(-c3ccccc3)[nH]c2c1 (racemic)

Activity (Cannabinoid receptor 1 [1]): < 50%
SMILES: N#CC(C#N)C(c1ccccc1)c1c(-c2ccccc2)[nH]c2ccccc12 (racemic)

Activity (Cannabinoid receptor 1 [1]): < 50%
SMILES: OCC(c1ccccc1)c1c(-c2ccccc2)[nH]c2ccccc12 (racemic)

Activity (Cannabinoid receptor 1 [1]): < 50%
SMILES: O=C(O)CC(c1ccccc1)c1c(-c2ccccc2)[nH]c2ccccc12 (single isomer, unassigned; (+))

Activity (Cannabinoid receptor 1 [1]): < 50%
SMILES: CS(=O)(=O)Nc1ccc2c(C(CC(F)(F)F)c3cccs3)c(-c3ccccc3)[nH]c2c1 (racemic)

Activity (Cannabinoid receptor 1 [8]): > 50%
SMILES: FC(F)(F)CC(c1ccco1)c1c(-c2ccccc2)[nH]c2cc(Cl)ccc12 (racemic)

Activity (Cannabinoid receptor 1 [1]): < 50%
SMILES: Nc1ccc2c(C(CC(F)(F)F)c3cccs3)c(-c3ccccc3)[nH]c2c1 (racemic)

Activity (Cannabinoid receptor 1 [1]): < 50%
SMILES: OCc1ccc2c(C(CC(F)(F)F)c3cccs3)c(-c3ccccc3)[nH]c2c1 (racemic)

Activity (Cannabinoid receptor 1 [1]): < 50%
SMILES: O=C(O)CC(c1ccccc1)c1c(-c2ccccc2)[nH]c2ccccc12 (racemic) [listing 2 of 2 here]

Activity (Cannabinoid receptor 1 [1]): < 50%
SMILES: O=C(O)c1ccc(-c2[nH]c3cc(Cl)ccc3c2C(C[N+](=O)[O-])c2cccs2)cc1 (racemic)

Activity (Cannabinoid receptor 1 [1]): < 50%
t1/2 [3]: 24.2 min
t1/2 [5]: 9.8 min
SMILES: Cc1ccc2c(C(C[N+](=O)[O-])c3cccs3)c(-c3ccc(Cl)cc3)[nH]c2c1 (racemic)

Activity (Cannabinoid receptor 1 [6]): > 50%
SMILES: Cc1ccc2[nH]c(-c3ccccc3)c(C(C[N+](=O)[O-])c3cccs3)c2c1 (racemic)

Activity (Cannabinoid receptor 1 [8]): > 50%
SMILES: Cc1ccc2c(C(CC(F)(F)F)c3cccs3)c(-c3ccccc3)[nH]c2c1 (racemic)

Activity (Cannabinoid receptor 1 [1]): < 50%
SMILES: CC(=O)Nc1ccc2c(C(CC(F)(F)F)c3cccs3)c(-c3ccccc3)[nH]c2c1 (racemic)

Activity (Cannabinoid receptor 1 [1]): 30 to 50%
t1/2 [3]: 39.4 min
t1/2 [5]: 18.2 min
SMILES: OC(C(c1ccccc1)c1c(-c2ccccc2)[nH]c2ccccc12)C(F)(F)F (racemic)

Activity (Cannabinoid receptor 1 [1]): < 50%
SMILES: O=C(O)CC(c1ccccc1)c1c(-c2ccccc2)[nH]c2ccccc12 (stereo in doubt; (-)-26)
